This passage reports activation results from paper PMC10175918 (Communications Biology, 2023).

Each structure is given as a SMILES string. Like-named read-outs stand apart in the source and are kept apart here.

Holding throughout (assay): TGFα-shedding assay-based GPCR screening with chimeric Gα subunit proteins
Common to all, as to type: cell-based

Assay [1] has as its target T1, 348 GPCRs (Homo sapiens, UniProt Q6DWJ6).
T1 construct: expressed in transfected cells; host or cells: HEK293A
T1 sequence (Q6DWJ6 1-353): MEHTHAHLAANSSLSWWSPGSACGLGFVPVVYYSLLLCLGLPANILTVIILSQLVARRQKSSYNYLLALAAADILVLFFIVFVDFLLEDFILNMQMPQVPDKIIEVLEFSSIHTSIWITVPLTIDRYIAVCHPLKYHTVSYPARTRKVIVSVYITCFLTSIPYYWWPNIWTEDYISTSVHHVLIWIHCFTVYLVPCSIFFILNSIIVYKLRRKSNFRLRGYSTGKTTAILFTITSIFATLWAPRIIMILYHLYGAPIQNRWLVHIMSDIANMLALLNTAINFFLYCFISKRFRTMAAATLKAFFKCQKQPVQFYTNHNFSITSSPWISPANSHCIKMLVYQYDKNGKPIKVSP
As to conditions: 10µM, Favipiravir 100μM.

The target in assay [2] is T2, 348 GPCRs (Homo sapiens, UniProt P49019).
T2 construct: expressed in transfected cells; host or cells: HEK293A
The following applies: 10µM, Favipiravir 100μM.

Assay [3] has as its target T3, 348 GPCRs (Homo sapiens, UniProt P48039).
T3 construct: expressed in transfected cells; host or cells: HEK293A
As to conditions: 10µM, Favipiravir 100μM.

Assay [4] addresses T4, 348 GPCRs (Homo sapiens, UniProt Q5UAW9).
T4 construct: expressed in transfected cells; host or cells: HEK293A
The following applies: 10µM, Favipiravir 100μM.

Assay [5] has as its target T5, 348 GPCRs (Homo sapiens, UniProt P30559).
T5 construct: expressed in transfected cells; host or cells: HEK293A
T5 sequence (P30559 1-389): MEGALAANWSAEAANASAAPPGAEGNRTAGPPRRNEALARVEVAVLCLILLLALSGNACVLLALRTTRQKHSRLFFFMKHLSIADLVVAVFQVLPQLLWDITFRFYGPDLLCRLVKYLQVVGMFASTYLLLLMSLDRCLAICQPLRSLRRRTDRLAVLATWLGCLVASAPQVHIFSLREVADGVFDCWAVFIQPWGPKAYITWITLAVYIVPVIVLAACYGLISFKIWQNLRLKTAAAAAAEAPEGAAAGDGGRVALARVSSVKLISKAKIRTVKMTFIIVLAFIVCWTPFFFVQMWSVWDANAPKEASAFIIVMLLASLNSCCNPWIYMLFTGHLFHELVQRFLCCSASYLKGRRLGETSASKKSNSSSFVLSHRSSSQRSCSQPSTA

Assay [6] has as its target T6, 348 GPCRs (Homo sapiens, UniProt Q01726).
T6 construct: expressed in transfected cells; host or cells: HEK293A

The target of assay [7] is T7, 348 GPCRs (Homo sapiens, UniProt P35410).
T7 construct: expressed in transfected cells; host or cells: HEK293A
T7 sequence (P35410 1-378): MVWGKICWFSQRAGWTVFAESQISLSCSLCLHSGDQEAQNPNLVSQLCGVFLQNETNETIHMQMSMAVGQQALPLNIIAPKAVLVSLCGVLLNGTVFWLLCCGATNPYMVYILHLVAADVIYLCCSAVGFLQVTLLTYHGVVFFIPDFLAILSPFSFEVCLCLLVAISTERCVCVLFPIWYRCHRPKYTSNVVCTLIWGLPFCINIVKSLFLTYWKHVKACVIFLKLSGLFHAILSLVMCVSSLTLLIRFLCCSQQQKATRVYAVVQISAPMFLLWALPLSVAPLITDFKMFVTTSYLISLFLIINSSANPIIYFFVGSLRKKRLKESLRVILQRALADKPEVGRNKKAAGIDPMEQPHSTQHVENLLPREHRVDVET

For assay [8], the target named is T8, 348 GPCRs (Homo sapiens, UniProt Q96LB1).
T8 construct: expressed in transfected cells; host or cells: HEK293A
T8 sequence (Q96LB1 1-330): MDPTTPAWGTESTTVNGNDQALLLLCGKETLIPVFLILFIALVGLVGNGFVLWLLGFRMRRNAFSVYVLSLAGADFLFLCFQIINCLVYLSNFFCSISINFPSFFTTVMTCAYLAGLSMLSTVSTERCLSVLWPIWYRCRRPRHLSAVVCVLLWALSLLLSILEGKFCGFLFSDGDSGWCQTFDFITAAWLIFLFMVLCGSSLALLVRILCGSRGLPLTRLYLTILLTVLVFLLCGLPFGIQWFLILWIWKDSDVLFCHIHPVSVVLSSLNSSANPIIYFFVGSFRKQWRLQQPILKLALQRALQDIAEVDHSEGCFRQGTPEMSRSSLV
The following applies: 10µM, Favipiravir 100μM.

Assay [9] concerns the target T9, 348 GPCRs (Homo sapiens, UniProt O60755).
T9 construct: expressed in transfected cells; host or cells: HEK293A
T9 sequence (O60755 1-368): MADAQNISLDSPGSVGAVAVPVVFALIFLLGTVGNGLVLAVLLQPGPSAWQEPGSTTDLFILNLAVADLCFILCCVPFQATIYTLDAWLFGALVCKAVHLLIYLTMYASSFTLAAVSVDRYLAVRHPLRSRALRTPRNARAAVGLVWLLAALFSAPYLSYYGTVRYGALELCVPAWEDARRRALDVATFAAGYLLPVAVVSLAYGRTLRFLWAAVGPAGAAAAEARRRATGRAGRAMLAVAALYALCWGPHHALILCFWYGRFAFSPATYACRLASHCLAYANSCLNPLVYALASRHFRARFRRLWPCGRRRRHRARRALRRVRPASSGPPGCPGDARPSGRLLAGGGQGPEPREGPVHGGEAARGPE
The following applies: 10µM, Favipiravir 100μM.

Assay [10] deals with T10, 348 GPCRs (Homo sapiens, UniProt Q9Y3P9).
T10 construct: expressed in transfected cells; host or cells: HEK293A
The following applies: 10µM, Favipiravir 100μM.

[11] abbreviates: GPR139 (G protein-coupled receptor 139), read-out: % GPCR activation compared to TPA.
The mark [12] stands for this setting: HCA3 (hydroxycarboxylic Acid Receptor 3), read-out: % GPCR activation compared to TPA.
[13] abbreviates: MT1R (melatonin receptor type 1A), read-out: % GPCR activation compared to TPA.
The mark [14] stands for this setting: GPR157 (G Protein-Coupled Receptor 157), read-out: % GPCR activation compared to TPA.
[15] abbreviates: MRGPRX2 (MAS-related GPR, member X2), read-out: % GPCR activation compared to TPA.
Setting [16] is: GALR3 (galanin receptor 3), read-out: % GPCR activation compared to TPA.
Setting [17] is: RABGAP1 (Rab GTPase-activating protein 1), read-out: % GPCR activation compared to TPA.
Setting [18] is: read-out: % GPCR activation compared to TPA, GPR139 (G protein-coupled receptor 139).
Where [19] appears, read: read-out: % GPCR activation compared to TPA, HCA3 (hydroxycarboxylic Acid Receptor 3).
Setting [20] is: read-out: % GPCR activation compared to TPA, MT1R (melatonin receptor type 1A).
Where [21] appears, read: read-out: % GPCR activation compared to TPA, GPR157 (G Protein-Coupled Receptor 157).
[22] abbreviates: read-out: % GPCR activation compared to TPA, GPCR OXTR (oxytocin Receptor).
Setting [23] is: read-out: % GPCR activation compared to TPA, GPCR MC1R (melanocyte-stimulating hormone receptor).
The mark [24] stands for this setting: read-out: % GPCR activation compared to TPA, GPCR MAS1L (MAS1 oncogene-like).
[25] abbreviates: read-out: % GPCR activation compared to TPA, MRGPRX2 (MAS-related GPR, member X2).
[26] abbreviates: read-out: % GPCR activation compared to TPA, GALR3 (galanin receptor 3).
The mark [27] stands for this setting: read-out: % GPCR activation compared to TPA, RABGAP1 (Rab GTPase-activating protein 1).
The mark [28] stands for this setting: GPCR OXTR (oxytocin Receptor), read-out: % GPCR activation compared to TPA.
Setting [29] is: GPCR MC1R (melanocyte-stimulating hormone receptor), read-out: % GPCR activation compared to TPA.
Setting [30] is: GPCR MAS1L (MAS1 oncogene-like), read-out: % GPCR activation compared to TPA.

T6 sequence (Q01726 whole entry): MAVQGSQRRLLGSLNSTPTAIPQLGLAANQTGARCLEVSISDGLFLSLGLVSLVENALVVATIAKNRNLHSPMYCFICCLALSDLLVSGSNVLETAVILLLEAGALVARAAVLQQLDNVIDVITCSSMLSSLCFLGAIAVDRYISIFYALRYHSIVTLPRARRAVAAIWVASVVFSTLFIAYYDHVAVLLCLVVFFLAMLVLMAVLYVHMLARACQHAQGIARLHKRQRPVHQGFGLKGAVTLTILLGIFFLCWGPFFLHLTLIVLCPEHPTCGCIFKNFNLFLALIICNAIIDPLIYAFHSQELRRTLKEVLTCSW
T2 sequence (P49019 whole entry): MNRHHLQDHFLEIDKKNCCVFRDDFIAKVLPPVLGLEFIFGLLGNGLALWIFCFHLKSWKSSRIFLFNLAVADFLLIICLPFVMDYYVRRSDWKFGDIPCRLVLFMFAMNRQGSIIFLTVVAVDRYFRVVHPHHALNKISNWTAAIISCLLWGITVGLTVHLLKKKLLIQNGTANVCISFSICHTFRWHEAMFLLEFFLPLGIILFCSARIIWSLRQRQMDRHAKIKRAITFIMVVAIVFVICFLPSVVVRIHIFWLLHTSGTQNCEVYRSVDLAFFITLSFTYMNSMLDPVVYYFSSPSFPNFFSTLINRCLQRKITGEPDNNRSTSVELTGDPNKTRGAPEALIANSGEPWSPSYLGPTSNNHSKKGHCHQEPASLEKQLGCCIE
T3 sequence (P48039 whole entry): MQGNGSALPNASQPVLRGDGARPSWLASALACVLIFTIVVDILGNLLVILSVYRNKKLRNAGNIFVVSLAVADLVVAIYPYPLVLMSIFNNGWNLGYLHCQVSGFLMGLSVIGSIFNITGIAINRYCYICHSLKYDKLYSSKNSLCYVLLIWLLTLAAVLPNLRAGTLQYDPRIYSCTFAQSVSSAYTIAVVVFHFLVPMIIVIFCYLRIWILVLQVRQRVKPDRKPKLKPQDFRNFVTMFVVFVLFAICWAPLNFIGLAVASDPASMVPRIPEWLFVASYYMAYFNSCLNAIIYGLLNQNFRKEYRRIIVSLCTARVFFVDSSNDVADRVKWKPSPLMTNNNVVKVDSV
T4 sequence (Q5UAW9 whole entry): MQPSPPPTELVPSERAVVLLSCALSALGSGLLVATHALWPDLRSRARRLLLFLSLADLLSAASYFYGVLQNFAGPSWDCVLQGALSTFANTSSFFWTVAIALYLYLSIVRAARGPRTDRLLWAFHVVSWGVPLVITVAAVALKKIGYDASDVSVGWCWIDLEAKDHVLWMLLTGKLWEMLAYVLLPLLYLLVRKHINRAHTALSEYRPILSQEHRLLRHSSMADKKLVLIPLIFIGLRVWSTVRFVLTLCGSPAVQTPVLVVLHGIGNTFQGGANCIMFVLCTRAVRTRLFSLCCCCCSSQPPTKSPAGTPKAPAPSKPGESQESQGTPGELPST
T10 sequence (Q9Y3P9 whole entry): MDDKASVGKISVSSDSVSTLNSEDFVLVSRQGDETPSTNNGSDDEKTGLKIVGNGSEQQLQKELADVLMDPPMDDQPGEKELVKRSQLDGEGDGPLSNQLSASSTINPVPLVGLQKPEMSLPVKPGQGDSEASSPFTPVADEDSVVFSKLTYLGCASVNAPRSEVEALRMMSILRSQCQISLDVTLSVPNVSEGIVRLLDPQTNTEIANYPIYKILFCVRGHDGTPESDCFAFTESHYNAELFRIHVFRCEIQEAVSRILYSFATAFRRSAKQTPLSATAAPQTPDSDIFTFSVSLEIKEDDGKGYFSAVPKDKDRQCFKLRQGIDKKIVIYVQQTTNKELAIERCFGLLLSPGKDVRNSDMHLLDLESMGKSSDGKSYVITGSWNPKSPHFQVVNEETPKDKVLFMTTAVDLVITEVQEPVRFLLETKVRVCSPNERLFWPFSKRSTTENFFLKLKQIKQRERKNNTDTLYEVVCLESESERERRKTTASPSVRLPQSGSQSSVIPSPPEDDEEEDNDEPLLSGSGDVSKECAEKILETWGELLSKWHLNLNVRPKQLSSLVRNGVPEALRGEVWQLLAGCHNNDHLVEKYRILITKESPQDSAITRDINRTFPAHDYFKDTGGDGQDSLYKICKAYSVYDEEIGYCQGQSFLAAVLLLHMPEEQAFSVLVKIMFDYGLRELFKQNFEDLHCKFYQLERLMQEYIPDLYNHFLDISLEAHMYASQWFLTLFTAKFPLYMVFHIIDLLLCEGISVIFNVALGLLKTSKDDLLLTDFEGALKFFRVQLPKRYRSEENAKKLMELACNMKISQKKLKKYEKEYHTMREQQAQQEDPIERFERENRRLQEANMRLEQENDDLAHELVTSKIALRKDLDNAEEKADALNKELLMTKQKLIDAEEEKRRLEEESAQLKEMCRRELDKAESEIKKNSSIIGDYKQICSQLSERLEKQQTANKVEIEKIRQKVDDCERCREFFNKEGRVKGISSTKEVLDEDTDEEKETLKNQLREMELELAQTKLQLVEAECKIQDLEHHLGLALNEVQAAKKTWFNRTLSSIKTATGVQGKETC

`NC(=O)c1nc(F)cnc1O` [favipiravir, 6-fluoro-3-hydroxy-2-pyrazinecarboxamide]: the activation at 100 µM was -7.28% at 348 GPCRs [1] (setting [11]); 0.282% on 348 GPCRs [2] (setting [12]); -0.726% at 348 GPCRs [5] (GPCR OXTR (oxytocin Receptor), 100μM, read-out: % GPCR activation compared to TPA); -0.375% on 348 GPCRs [6] (GPCR MC1R (melanocyte-stimulating hormone receptor), 100μM, read-out: % GPCR activation compared to TPA); -0.101% on 348 GPCRs [7] (GPCR MAS1L (MAS1 oncogene-like), 100μM, read-out: % GPCR activation compared to TPA); -2.37% at 348 GPCRs [8] (setting [15]). The activation at 100 µM at 348 GPCRs [9] (setting [16]) was 3.96%; at 348 GPCRs [10] (setting [17]), -1.48%. The figures for the activation at 10 µM at 348 GPCRs [3] (setting [13]) and at 348 GPCRs [4] (setting [14]) were -1.27% and -0.889%, respectively.
Consider `CC(C)OC(=O)[C@H](C)N[P@](=O)(OC[C@H]1O[C@@H](n2ccc(=O)[nH]c2=O)[C@](C)(F)[C@@H]1O)Oc1ccccc1` [sofosbuvir], for which the activation at 100 µM at 348 GPCRs [1] (setting [18]) was -27.2%; on 348 GPCRs [2] (setting [19]) it was -2.7%; on 348 GPCRs [8] (setting [25]), 0.383%; on 348 GPCRs [9] (setting [26]) it was -0.187%; on 348 GPCRs [10] (setting [27]), -1.28%. Besides, the activation at 10 µM is -4.49% on 348 GPCRs [3] (setting [20]); 3.51% on 348 GPCRs [4] (setting [21]); -3.36% on 348 GPCRs [5] (setting [22]); 0.575% on 348 GPCRs [6] (setting [23]); 0.457% at 348 GPCRs [7] (setting [24]).
Consider `CCC(CC)COC(=O)[C@H](C)N[P@](=O)(OC[C@H]1O[C@@](C#N)(c2ccc3c(N)ncnn23)[C@H](O)[C@@H]1O)Oc1ccccc1` [remdesivir], for which the activation at 100 µM at 348 GPCRs [1] (setting [18]) is 2.27%; on 348 GPCRs [2] (setting [19]), -1.75%; at 348 GPCRs [8] (setting [25]), 0.19%; on 348 GPCRs [9] (setting [26]) it was 3.03%; on 348 GPCRs [10] (setting [27]), -0.577%. The activation at 10 µM on 348 GPCRs [3] (setting [20]) was 0.542%; on 348 GPCRs [4] (setting [21]), 1.04%; on 348 GPCRs [5] (setting [22]), 0.33%; on 348 GPCRs [6] (setting [23]), -0.549%; at 348 GPCRs [7] (setting [24]), 0.269%.
`N#C[C@@]1(c2ccc3c(N)ncnn23)O[C@H](CO)[C@@H](O)[C@H]1O` [GS441524]: the activation at 100 µM at 348 GPCRs [1] (setting [11]) is -6.35%; on 348 GPCRs [2] (setting [12]) it was -0.178%; on 348 GPCRs [8] (setting [15]), -2.44%; on 348 GPCRs [9] (setting [16]) it was 2.25%; on 348 GPCRs [10] (setting [17]), -1.83%. The activation at 10 µM was 0.391% on 348 GPCRs [3] (setting [13]); -1.23% at 348 GPCRs [4] (setting [14]); -1.2% on 348 GPCRs [5] (setting [28]); 0.496% at 348 GPCRs [6] (setting [29]); 3.15% on 348 GPCRs [7] (setting [30]).
In the case of `CC(C)C(=O)OC[C@H]1O[C@@H](n2ccc(NO)nc2=O)[C@H](O)[C@@H]1O` [molnupiravir], the activation at 100 µM is -23.9% on 348 GPCRs [1] (setting [11]); -2.64% at 348 GPCRs [2] (setting [12]); -3.06% at 348 GPCRs [8] (setting [15]); 0.404% on 348 GPCRs [9] (setting [16]); -0.481% on 348 GPCRs [10] (setting [17]). Besides, the activation at 10 µM on 348 GPCRs [3] (setting [13]) is -4.07%; on 348 GPCRs [4] (setting [14]), -0.773%; at 348 GPCRs [5] (setting [28]) it was -2.8%; at 348 GPCRs [6] (setting [29]), 0.0444%; at 348 GPCRs [7] (setting [30]) it was 0.3%.
